Consider 26 compounds from patent US20240083857A1, “2-Methyl-Quinazolines” (Bayer Pharma Aktiengesellschaft, priority 2017, published 2024).

Each structure is given as a SMILES string.

The target in assay [1] is K-Ras^G12C : hSOS1 interaction (Homo sapiens, UniProt Q07889). Briefly: Biochemical assay 1: K-Ras^G12C interaction assay with hSOS1 (HTRF). In kind it is binding. As to conditions: for IC50: read-out: Assay 1 (KRAS-SOS Interaction) activity expressed as IC50. (TR-FRET usually uses a lanthanide donor and a delayed reading to cut background.)
The target in assay [2] is human SOS1 (nucleotide exchange of K-Ras^G12C) (Homo sapiens, UniProt Q07889). The assay is described as follows: Biochemical assay 2: K-Ras^G12C activation assay by hSOS1 at high GTP concentration (HTRF). As to conditions: high GTP; for IC50: read-out: Assay 2 (KRAS-Activation by SOS high GTP) activity expressed as IC50; for inhibition at 20 µM: read-out: Assay 2 (KRAS-Activation by SOS high GTP) activity expressed as % inhibition at 20 μM.

Assay [3] concerns the target human SOS1 (loading of human K-Ras^G12C-GDP with fluorescent GTP-analog) (Homo sapiens, UniProt Q07889). Briefly: Biochemical assay 3: K-Ras^G12C activation assay by hSOS1 (HTRF). The conditions noted are these: no GTP; for IC50: read-out: Assay 3 (KRAS-Activation by SOS no GTP) activity expressed as IC50; for inhibition at 20 µM: read-out: Assay 3 (KRAS-Activation by SOS no GTP) activity expressed as % inhibition at 20 μM.

The term IC50 denotes the concentration that inhibits the measured activity by half. Consider `COc1cc2nc(C)nc(N[C@H](C)c3cccc(-c4cccc(OC(F)(F)F)c4)c3)c2cc1OC` [Example 84, 6,7-dimethoxy-2-methyl-N-{(1R)-1-[3′-(trifluoromethoxy)biphenyl-3-yl]ethyl}quinazolin-4-amine], for which the IC50 came out at 5330 nM in assay [1], 7200 nM in assay [2] and 11000 nM in assay [3].

In the case of `COc1cc2nc(C)nc(N[C@H](C)c3cccc(-c4ccc5[nH]ccc5c4)c3)c2cc1OC` [Example 85, N-{(1R)-1-[3-(1H-indol-5-yl)phenyl]ethyl}-6,7-dimethoxy-2-methylquinazolin-4-amine], the IC50 turned out to be 687 nM in assay [1], 756 nM in assay [2] and 1260 nM in assay [3].

Turning to `COc1cc2nc(C)nc(N[C@H](C)c3cccc(-c4ccoc4)c3)c2cc1OC` [Example 86, N-{(1R)-1-[3-(furan-3-yl)phenyl]ethyl}-6,7-dimethoxy-2-methylquinazolin-4-amine], the IC50 in assay [1] stood at 581 nM; in assay [2] it was 935 nM; in assay [3] it was 693 nM.

Regarding `COc1cc2nc(C)nc(N[C@H](C)c3cccc(-c4csc5ccccc45)c3)c2cc1OC` [Example 87, N-{(1R)-1-[3-(1-benzothiophen-3-yl)phenyl]ethyl}-6,7-dimethoxy-2-methylquinazolin-4-amine], the figures for the IC50 in assay [1], in assay [2] and in assay [3] were 4420 nM, 3460 nM and 7420 nM, respectively.

With `COc1cc2nc(C)nc(N[C@H](C)c3cccc(-c4cc5ccccc5n4C)c3)c2cc1OC` [Example 88, 6,7-dimethoxy-2-methyl-N-{(1R)-1-[3-(1-methyl-1H-indol-2-yl)phenyl]ethyl}quinazolin-4-amine], the half-inhibitory concentration (IC50) in assay [1] worked out at 3560 nM; in assay [2] it was 2560 nM; in assay [3] it was 6180 nM.

Turning to `CCC/C=C/c1cccc([C@@H](C)Nc2nc(C)nc3cc(OC)c(OC)cc23)c1` [Example 89, 6,7-dimethoxy-2-methyl-N-[(1R)-1-{3-[(1E)-pent-1-en-1-yl]phenyl}ethyl]quinazolin-4-amine], the half-maximal inhibitory concentration (IC50) in assay [1] stood at 1680 nM; in assay [2] it was 2680 nM; in assay [3], 4260 nM.

What is called inhibition is the percentage by which the read-out fell short of the control. `COc1cc2nc(C)nc(N[C@H](C)c3cccc(/C=C/C4CCCCC4)c3)c2cc1OC` [Example 90, N-[(1R)-1-{3-[(E)-2-cyclohexylethenyl]phenyl}ethyl]-6,7-dimethoxy-2-methylquinazolin-4-amine]: in assay [1], the 50% inhibitory concentration (IC50) came to 11000 nM. The values for the inhibition at 20 µM in assay [2] and in assay [3] were 46% and 33%, respectively.

For `COc1cc2nc(C)nc(N[C@H](C)c3cccc(-c4ccccc4Oc4ccccc4)c3)c2cc1OC` [Example 91, 6,7-dimethoxy-2-methyl-N-[(1R)-1-(2′-phenoxybiphenyl-3-yl)ethyl]quinazolin-4-amine], the IC50 in assay [1] turned out to be 15000 nM. For the same compound, the inhibition at 20 µM came to 36% in assay [2] and 38% in assay [3].

`COc1cc2nc(C)nc(N[C@H](C)c3cccc(-c4ccc(NC(=O)OC(C)(C)C)cc4)c3)c2cc1OC` [Example 92, tert-butyl (3′-{(1R)-1-[(6,7-dimethoxy-2-methylquinazolin-4-yl)amino]ethyl}biphenyl-4-yl)carbamate]: the results for the concentration for half-maximal inhibition (IC50) in assay [1], in assay [2] and in assay [3] were 4700 nM, 3670 nM and 9260 nM, respectively.

On to `COc1cc2nc(C)nc(N[C@H](C)c3cccc(-c4cccc(/C=C/C#N)c4)c3)c2cc1OC` [Example 93, (2E)-3-(3′-{(1R)-1-[(6,7-dimethoxy-2-methylquinazolin-4-yl)amino]ethyl}biphenyl-3-yl)prop-2-enenitrile], for which the figures for the concentration for half-maximal inhibition (IC50) in assay [1], in assay [2] and in assay [3] were 1850 nM, 1580 nM and 2890 nM, respectively.

Take `COc1cc2nc(C)nc(N[C@H](C)c3cccc(-c4ccc(C)cc4C)c3)c2cc1OC` [Example 94, N-[{1R)-1-(2′,4′-dimethylbiphenyl-3-yl)ethyl]-6,7-dimethoxy-2-methylquinazolin-4-amine]: the figures for the IC50 in assay [1], in assay [2] and in assay [3] were 2420 nM, 3140 nM and 4280 nM, respectively.

On to `COc1cc2nc(C)nc(N[C@H](C)c3cccc(-c4ccc(C(C)=O)s4)c3)c2cc1OC` [Example 95, 1-[5-(3-{(1R)-1-[(6,7-dimethoxy-2-methylquinazolin-4-yl)amino]ethyl}phenyl)thiophen-2-yl]ethanone], for which the IC50 in assay [1] turned out to be 801 nM; in assay [2], 473 nM; in assay [3] it was 1080 nM.

Consider `COc1cc2nc(C)nc(N[C@H](C)c3cccc(-c4ccc5c(c4)OCO5)c3)c2cc1OC` [Example 96, N-{(1R)-1-[3-(1,3-benzodioxol-5-yl)phenyl]ethyl}-6,7-dimethoxy-2-methylquinazolin-4-amine], for which the IC50 in assay [1] amounted to 1040 nM; in assay [2] it was 1090 nM; in assay [3], 1390 nM.

Turning to `COc1cc2nc(C)nc(N[C@H](C)c3cccc(-c4ccc(OCc5ccccc5)cc4)c3)c2cc1OC` [Example 97, N-{(1R)-1-[4′-(benzyloxy)biphenyl-3-yl]ethyl}-6,7-dimethoxy-2-methylquinazolin-4-amine], the values for the inhibition at 20 µM in assay [1] (read-out: Assay 1 (KRAS-SOS Interaction) activity expressed as % inhibition at 20 μM), in assay [2] and in assay [3] were 39%, 28% and 38%, respectively.

On to `COc1cccc(-c2cccc([C@@H](C)Nc3nc(C)nc4cc(OC)c(OC)cc34)c2)c1` [Example 99, 6,7-dimethoxy-N-[(1R)-1-(3′-methoxybiphenyl-3-yl)ethyl]-2-methylquinazolin-4-amine], for which the IC50 was determined as 2180 nM in assay [1], 1420 nM in assay [2] and 2630 nM in assay [3].

With `COc1cc2nc(C)nc(N[C@H](C)c3cccc(-c4cccc(C(F)(F)F)c4)c3)c2cc1OC` [Example 100, 6,7-dimethoxy-2-methyl-N-{(1R)-1-[3′-(trifluoromethyl)biphenyl-3-yl]ethyl}quinazolin-4-amine], the values for the IC50 in assay [1], in assay [2] and in assay [3] were 5350 nM, 4510 nM and 8520 nM, respectively.

Turning to `COc1cc2nc(C)nc(N[C@H](C)c3cccc(-c4ccccc4S(=O)(=O)N(C)C)c3)c2cc1OC` [Example 101, 3′-{(1R)-1-[(6,7-dimethoxy-2-methylquinazolin-4-yl)amino]ethyl}-N,N-dimethylbiphenyl-2-sulfonamide], the IC50 in assay [1] was 715 nM; in assay [2] it was 897 nM; in assay [3], 1800 nM.

Regarding `CCCOc1ccccc1-c1cccc([C@@H](C)Nc2nc(C)nc3cc(OC)c(OC)cc23)c1` [Example 102, 6,7-dimethoxy-2-methyl-N-[(1R)-1-(2′-propoxybiphenyl-3-yl)ethyl]quinazolin-4-amine], the 50% inhibitory concentration (IC50) in assay [1] was found to be 6380 nM; in assay [2], 3560 nM; in assay [3] it was 11500 nM.

Regarding `COc1cc2nc(C)nc(N[C@H](C)c3cccc(-c4ccccc4C(=O)N(C)C)c3)c2cc1OC` [Example 103, 3′-{(1R)-1-[(6,7-dimethoxy-2-methylquinazolin-4-yl)amino]ethyl}-N,N-dimethylbiphenyl-2-carboxamide], the IC50 is 1440 nM in assay [1], 2480 nM in assay [2] and 2740 nM in assay [3].

As for `COCc1ccccc1-c1cccc([C@@H](C)Nc2nc(C)nc3cc(OC)c(OC)cc23)c1` [Example 104, 6,7-dimethoxy-N-{(1R)-1-[2′-(methoxymethyl)biphenyl-3-yl]ethyl}-2-methylquinazolin-4-amine], the IC50 in assay [1] amounted to 1820 nM; in assay [2], 1900 nM; in assay [3] it was 2520 nM.

Take `COc1cc2nc(C)nc(N[C@H](C)c3cccc(-c4ccc5c(ccn5C)c4)c3)c2cc1OC` [Example 105, 6,7-dimethoxy-2-methyl-N-{(1R)-1-[3-{1-methyl-1H-indol-5-yl)phenyl]ethyl}quinazolin-4-amine]: the values for the IC50 in assay [1], in assay [2] and in assay [3] were 2400 nM, 1390 nM and 2770 nM, respectively.

For the compound `COc1cc2nc(C)nc(N[C@H](C)c3cccc(-c4cccc(C(=O)N(C)C)c4)c3)c2cc1OC` [Example 106, 3′-{(1R)-1-[(6,7-dimethoxy-2-methylquinazolin-4-yl)amino]ethyl}-N,N-dimethylbiphenyl-3-carboxamide], the IC50 in assay [1] stood at 1410 nM; in assay [2], 1530 nM; in assay [3], 2050 nM.

Regarding `COc1cc2nc(C)nc(N[C@H](C)c3cccc(-c4ccc(CO)s4)c3)c2cc1OC` [Example 107, [5-(3-{(1R)-1-[(6,7-dimethoxy-2-methylquinazolin-4-yl)amino]ethyl}phenyl)thiophen-2-yl]methanol], the IC50 in assay [1] turned out to be 319 nM; in assay [2], 467 nM; in assay [3], 438 nM.

On to `COc1cc2nc(C)nc(N[C@H](C)c3cccc(-c4ccncc4C)c3)c2cc1OC` [Example 108, 6,7-dimethoxy-2-methyl-N-{(1R)-1-[3-(3-methylpyridin-4-yl)phenyl]ethyl}quinazolin-4-amine], for which the IC50 was 821 nM in assay [1], 901 nM in assay [2] and 1230 nM in assay [3].

Turning to `COc1cc2nc(C)nc(N[C@H](C)c3cccc(-c4ccc5cc[nH]c5c4)c3)c2cc1OC` [Example 109, N-{(1R)-1-[3-(1H-indol-6-yl)phenyl]ethyl}-6,7-dimethoxy-2-methylquinazolin-4-amine], the IC50 in assay [1] was 1000 nM; in assay [2], 392 nM; in assay [3], 1410 nM.

For the compound `COc1cc2nc(C)nc(N[C@H](C)c3cccc(-c4cccc5[nH]ccc45)c3)c2cc1OC` [Example 110, N-{(1R)-1-[3-(1H-indol-4-yl)phenyl]ethyl}-6,7-dimethoxy-2-methylquinazolin-4-amine], the results for the half-inhibitory concentration (IC50) in assay [1], in assay [2] and in assay [3] were 1040 nM, 908 nM and 1190 nM, respectively.
